# Source: patent US20140349970A1 (ABBVIE INC., priority 2009, published 2014)
# Target: T1, Syk catalytic domain (aa 356-635 with a C-terminal His-tag) (Homo sapiens, UniProt P43405)
# T1 construct: His-tag (C); made in house
# Assay: In vitro Syk kinase activity measured by trFRET, Syk catalytic domain
# Assay type: biochemical
# Conditions: Syk catalytic domain (aa 356-635), trFRET, 0.001 mM ATP
# Description: In Vitro Syk Kinase Activity Measured by Time-Resolved Fluorescence Resonance Energy Transfer (trFRET)
# 0.14 nM purified Syk catalytic domain (aa 356-635 with a C-terminal His-tag purified in-house by immobilized metal ion affinity chromatography) was mixed with 0.2 μM peptide substrate (biotin-TYR1, Sequence: Biotin-(Ahx)-GAEEEIYAAFFA-COOH) at varying inhibitor concentrations in reaction buffer: 50 mM MOPSO pH 6.5, 10 mM MgCl2, 2 mM MnCl2, 2.5 mM DTT, 0.01% BSA, 0.1 mM Na3VO4 and 0.001 mM ATP. After about 60 min incubation at rt, the reaction was quenched by addition of EDTA (final concentration: 100 mM) and developed by addition of revelation reagents (final approximate concentrations: 30 mM HEPES pH 7.0, 0.06% BSA, 0.006% Tween-20, 0.24 M KF, 80 ng/mL PT66K (europium labeled anti-phosphotyrosine antibody cat #61T66KLB Cisbio, Bedford, Mass.) and 0.6 μg/mL SAXL (Phycolink streptavidin-allophycocyanin acceptor, cat #PJ255, Prozyme, San Leandro, Calif.). The developed reaction was incubated in the dark either at about 4° C. for about 14 h or for about 60 min at rt, then read via a time-resolved fluorescence detector (Rubystar, BMG) using a 337 nm laser for excitation and monitoring emission wavelengths at 665 nm. Within the linear range of the assay, the observed signal at 665 nm was directly related to phosphorylated product and can be used to calculate the IC50 values.
# MOPSO buffer contains: 50 mM MOPSO pH 6.5, 10 mM MgCl2, 2 mM MnCl2, 2.5 mM DTT, 0.01% BSA, and 0.1 mM Na3VO4 HEPES buffer contains: 50 mM HEPES pH 7.1, 2.5 mM DTT, 10 mM MgCl2, 2 mM MnCl2, 0.01% BSA, and 0.1 mM Na3VO4 MOPS buffer contains: 20 mM MOPS pH 7.2, 10 mM MgCl2, 5 mM EGTA, 5 mM Beta-phosphoglycerol, 1 mM Na3VO4, 0.01% Triton-X-100 and 1 mM DTT
# Biotin-TYR1-peptide sequence: Biotin-(Ahx)-GAEEEIYAAFFA-COOH Biotin-TYR2-peptide sequence: Biotin-(Ahx)-AEEEYFFLFA-amide KinEASE 51 peptides were purchased from Cisbio (cat #62ST0PEB, Bedford, Mass.)
# PT66K was purchased from Cisbio (cat #61T66KLB, Bedford, Mass.) EuSTK was purchased from Cisbio (cat #62ST0PEB, Bedford, Mass.) SAXL was purchased from Prozyme (cat #PJ25S, San Leandro, Calif.) Human T-Blasts IL-2 pSTAT5 Cellular Assay
row,SMILES,IC50
1,"COC(=O)Cn1cc(-c2nc(C)n3c2cnc2[nH]ccc23)cn1 [Example 12, Methyl 2-(4-(1-methyl-6H-imidazo[1,5-a]pyrrolo[2,3-e]pyrazin-3-yl)-1H-pyrazol-1-yl)acetate]",100 to 1000 nM
2,CN(C)CC(=O)NCc1cccc(-c2cc3c(ncc4cnn(C)c43)[nH]2)c1 [J.1.1.1],100 to 1000 nM
3,COCCC(=O)NCc1cccc(-c2cc3c(ncc4cnn(C)c43)[nH]2)c1 [J.1.1.2],100 to 1000 nM
4,Cn1ncc2cnc3[nH]c(-c4cccc(CNC(=O)CCN5CCOCC5)c4)cc3c21 [J.1.1.3],100 to 1000 nM
5,CCCCC(=O)NCc1cccc(-c2cc3c(ncc4cnn(C)c43)[nH]2)c1 [J.1.1.4],100 to 1000 nM
6,COc1ccc(-c2nc(C(=O)NCCO)n3c2cnc2[nH]ccc23)cc1 [J.1.2.1],< 100 nM
7,Cc1nc(-c2ccc(C3(O)CCN(C(=O)CC#N)CC3)cc2)c2cnc3[nH]ccc3n12 [J.1.3.1],< 100 nM
8,CN(C)C(=O)c1ccc2c(-c3cc4c(ncc5cnn(C)c54)[nH]3)cn(C)c2c1 [J.1.4.1],< 100 nM
9,Cn1cc(-c2cc3c(ncc4cnn(C)c43)[nH]2)c2ccc(C(=O)NCC(C)(C)CO)cc21 [J.1.4.2],< 100 nM
10,Cn1cc(-c2cc3c(ncc4cnn(C)c43)[nH]2)c2ccc(C(=O)NC(C)(C)CO)cc21 [J.1.4.3],< 100 nM
11,CC(=O)c1ccc(-c2cc3c(ncc4cnc(C(=O)N5CCCC5)n43)[nH]2)cc1 [J.1.5.1],< 100 nM
12,CC(=O)c1ccc(-c2cc3c(ncc4cnc(C(=O)NCCN(C)C)n43)[nH]2)cc1 [J.1.5.2],100 to 1000 nM
13,CCCNC(=O)c1ccc(-c2nc(C)n3c2cnc2[nH]ccc23)cc1Cl [J.1.6.1],100 to 1000 nM
14,CCCNC(=O)c1cc(-c2nc(C)n3c2cnc2[nH]ccc23)ccc1OC [J.1.7.1],100 to 1000 nM
15,COc1ccc(-c2nc(C)n3c2cnc2[nH]ccc23)cc1C(=O)NCCN(C)C [J.1.7.2],100 to 1000 nM
16,COc1ccc(-c2nc(C)n3c2cnc2[nH]ccc23)cc1C(=O)NCCO [J.1.7.3],100 to 1000 nM
17,COc1ccc(-c2nc(C)n3c2cnc2[nH]ccc23)cc1C(N)=O [J.1.7.4],100 to 1000 nM
18,Cn1cc(-c2cc3c(ncc4cnn(C)c43)[nH]2)c2cc(C(=O)NCCN3CCOCC3)ccc21 [J.1.8.1],< 100 nM
19,CN(C)CCNC(=O)c1ccc2c(c1)c(-c1cc3c(ncc4cnn(C)c43)[nH]1)cn2C [J.1.8.2],100 to 1000 nM
20,Cn1cc(-c2cc3c(ncc4cnn(C)c43)[nH]2)c2cc(C(=O)N3CCC(CO)CC3)ccc21 [J.1.8.3],< 100 nM
21,CN(C)C(=O)c1ccc2c(c1)c(-c1cc3c(ncc4cnn(C)c43)[nH]1)cn2C [J.1.8.4],< 100 nM
22,CN(CC(C)(C)CO)C(=O)c1ccc2c(c1)c(-c1cc3c(ncc4cnn(C)c43)[nH]1)cn2C [J.1.8.5],< 100 nM

row,SMILES,IC50
1,CN1CCN(C(=O)CNC(=O)c2ccc3c(c2)c(-c2cc4c(ncc5cnn(C)c54)[nH]2)cn3C)CC1 [J.1.8.6],< 100 nM
2,Cn1cc(-c2cc3c(ncc4cnn(C)c43)[nH]2)c2cc(C(=O)NCCO)ccc21 [J.1.8.7],< 100 nM
3,COc1ccc2c(c1)c(-c1cc3c(ncc4cnc([C@@H]5CCN(C(C)=O)C5)n43)[nH]1)cn2C [J.2.1.1],100 to 1000 nM
4,CC(=O)N[C@H]1CC[C@@H](c2ncc3cnc4[nH]c(-c5cccc(S(C)(=O)=O)c5)cc4n23)C1 [J.2.1.2],100 to 1000 nM
5,CC(=O)NCCCc1ncc2cnc3[nH]c(-c4cnn(C)c4)cc3n12 [J.2.1.3],100 to 1000 nM
6,CC(=O)NC(C)(C)c1ccc(-c2nc(C3CCCCC3)n3c2cnc2[nH]ccc23)cc1 [J.2.1.4],< 100 nM
7,CC(=O)N1CC=C(c2ncn3c2cnc2[nH]ccc23)CC1 [J.2.1.5],1000 to 10000 nM
8,CC(=O)N1CCC(O)(c2ccc(-c3nc(C)n4c3cnc3[nH]ccc34)cc2)CC1 [J.2.1.6],< 100 nM
9,COc1ccc(-c2nc([C@H]3CCC[C@@H](NC(C)=O)C3)n3c2cnc2[nH]ccc23)cc1 [J.2.1.7],100 to 1000 nM
10,CC(=O)NCc1nc(-c2ccc(C(C)(C)O)cc2)c2cnc3[nH]ccc3n12 [J.2.1.8],100 to 1000 nM
11,COc1ccc2c(c1)c(-c1cc3c(ncc4cnc([C@@H]5CC[C@H](NC(C)=O)C5)n43)[nH]1)cn2C [J.2.1.9],< 100 nM
12,Cn1cc(-c2cc3c(ncc4cnn(C)c43)[nH]2)c2cc(C(=O)NC(C)(C)CO)ccc21 [J.2.2.1],< 100 nM
13,Cn1cc(-c2cc3c(ncc4cnn(C)c43)[nH]2)c2cc(C(=O)NCC(C)(C)CO)ccc21 [J.2.2.2],< 100 nM
14,CCOCCCNC(=O)Cn1cccc1-c1cc2c(ncc3cnn(C)c32)[nH]1 [J.2.3.1],1000 to 10000 nM
15,Cn1ncc2cnc3[nH]c(-c4cccn4CC(=O)N4CCOCC4)cc3c21 [J.2.3.2],1000 to 10000 nM
16,CN1CCN(C(=O)Cn2cccc2-c2cc3c(ncc4cnn(C)c43)[nH]2)CC1 [J.2.3.3],> 10000 nM
17,"Cn1ncc2cnc3[nH]c(-c4cccc(CNS(C)(=O)=O)c4)cc3c21 [K.1, N-(3-(1-Methyl-1,6-dihydropyrazolo[3,4-d]pyrrolo[2,3-b]pyridin-7-yl)benzyl)methanesulfonamide]",100 to 1000 nM
18,COc1ccc2c(c1)c(-c1cc3c(ncc4cnc([C@@H]5CC[C@H](NS(=O)(=O)C6CC6)C5)n43)[nH]1)cn2C [K.1.1],< 100 nM
19,"COc1ccc2c(c1)c(-c1cc3c(ncc4cnc(C(F)(F)F)n43)[nH]1)cn2C [L.1.1, 7-(5-Methoxy-1-methyl-1H-indol-3-yl)-1-(trifluoromethyl)-6H-imidazo[1,5-a]pyrrolo[2,3-e]pyrazine]",100 to 1000 nM
20,"COc1ccc2c(c1)c(-c1cc3c(ncc4cnc(C5CCCOC5)n43)[nH]1)cn2C (centres unmarked) [M.1, 7-(5-Methoxy-1-methyl-1H-indol-3-yl)-1-(tetrahydro-2H-pyran-3-yl)-6H-imidazo[1,5-a]pyrrolo[2,3-e]pyrazine]",< 100 nM
21,COc1ccc2c(c1)c(-c1cc3c(ncc4cnc(CC(F)(F)F)n43)[nH]1)cn2C [M.1.1],< 100 nM
22,CS(=O)(=O)c1cccc(-c2cc3c(ncc4cnc(C(F)(F)F)n43)[nH]2)c1 [M.1.2],100 to 1000 nM

row,SMILES,IC50
1,Cc1ncc2cnc3[nH]c(-c4cccc(S(C)(=O)=O)c4)cc3n12 [M.1.3],< 100 nM
2,CS(=O)(=O)c1cccc(-c2cc3c(ncc4cnc(CCCNC(=O)C(F)(F)F)n43)[nH]2)c1 [M.1.4],100 to 1000 nM
3,CS(=O)(=O)c1cccc(-c2cc3c(ncc4cnc(C5CCCOC5)n43)[nH]2)c1 (centres unmarked) [M.1.5],100 to 1000 nM
4,CS(=O)(=O)c1cccc(-c2cc3c(ncc4cnc(C5CCC(O)C5)n43)[nH]2)c1 (centres unmarked) [M.1.6],100 to 1000 nM
5,COc1ccc2c(c1)c(-c1cc3c(ncc4cnc(CCCO)n43)[nH]1)cn2C [M.1.7],< 100 nM
6,COc1ccc2c(c1)c(-c1cc3c(ncc4cnc(N(C)C)n43)[nH]1)cn2C [M.1.8],< 100 nM
7,CCc1c(-c2ccc(C(C)(C)O)cc2)[nH]c2ncc3cnc(C)n3c12 [M.1.9],100 to 1000 nM
8,COc1ccc2c(c1)c(-c1cc3c(ncc4cnc(C5CCOCC5)n43)[nH]1)cn2C [M.1.10],< 100 nM
9,Cc1ncc2cnc3[nH]c(-c4cccc(C(=O)NCCN5CCOCC5)c4)cc3n12 [M.1.11],100 to 1000 nM
10,Cc1nnc2cnc3[nH]c(-c4cnn(C)c4)cc3n12 [M.1.12],1000 to 10000 nM
11,COc1ccc2c(c1)c(-c1cc3c(ncc4cnc(CCC#N)n43)[nH]1)cn2C [M.1.13],< 100 nM
12,COCCCc1ncc2cnc3[nH]c(-c4cn(C)c5ccc(OC)cc45)cc3n12 [M.1.14],< 100 nM
13,CNc1ncc2cnc3[nH]c(-c4ccc(C)cc4)cc3n12 [M.1.15],100 to 1000 nM
14,Cc1ccc(-c2cc3c(ncc4cnc(N(C)C)n43)[nH]2)cc1 [M.1.16],100 to 1000 nM
15,COc1ccc2c(c1)c(-c1cc3c(ncc4cnc(N5CCCC5)n43)[nH]1)cn2C [M.1.17],< 100 nM
16,Cc1ccc(-c2cc3c(ncc4cnc(N5CCCC5)n43)[nH]2)cc1 [M.1.18],100 to 1000 nM
17,COc1ccc(-c2cc3c(ncc4nnc(C)n43)[nH]2)cc1 [M.1.19],1000 to 10000 nM
18,COc1ccc2c(c1)c(-c1cc3c(ncc4nccn43)[nH]1)cn2C [M.1.20],100 to 1000 nM
19,COCCN(C)c1cnc2cnc3[nH]c(-c4cn(C)c5ccc(OC)cc45)cc3n12 [M.1.21],< 100 nM
20,COc1ccc(-c2cc3c(ncc4c(C)nc(C)n43)[nH]2)cc1 [M.1.22],100 to 1000 nM
21,COc1ccc(-c2cc3c(ncc4c(C)ncn43)[nH]2)cc1 [M.1.23],1000 to 10000 nM
